In patent US8178506B2, “Oligomeric compounds and compositions for use in modulation of small non-coding RNAs” (Regulus Therapeutics Inc., priority 2003, dated 2012):
In the oligonucleotide strings, read from the 5' end, every base follows the letter of its sugar. An asterisk marks phosphorothioate; unmarked linkages are phosphodiester. Other units and linkages are bracketed, terminal groups are in braces. A string of capitals states the bases alone. e = 2'-O-(2-methoxyethyl) (MOE); [5mC] = 5-methylcytosine

Columns and labels:
PPARγ = PPARγ mRNA expression in adipocytes (real-time PCR); assay type: cell-based, human; settings: differentiating adipocytes transfected with oligomeric compound
Glut4 = Glut4 mRNA expression in adipocytes (real-time PCR); assay type: cell-based, human; settings: differentiating adipocytes transfected with oligomeric compound
aP2 = aP2 mRNA expression in adipocytes (real-time PCR); assay type: cell-based, human; settings: differentiating adipocytes transfected with oligomeric compound; for aP2 mRNA: Table 75
adipocytes = assay: Triglyceride accumulation assay in adipocytes; assay type: cell-based, human; settings: differentiating adipocytes transfected with oligomeric compound
HuVECs = assay: Endothelial tube formation assay in HuVECs; settings: 75 nM oligomeric compound
HSL = HSL mRNA expression in adipocytes (real-time PCR); assay type: cell-based, human; settings: differentiating adipocytes transfected with oligomeric compound

Row | Substance | PPAR gamma mRNA (PPARγ; Table 75) | GLUT4 mRNA (Glut4; Table 75) | aP2 mRNA (aP2) | TG (triglyceride accumulation) (adipocytes; Table 75) | % Activity Relative to UTC (tube formation) (HuVECs; Table 58) | HSL mRNA (HSL; Table 75) | PPAR gamma mRNA (PPARγ) | GLUT4 mRNA (Glut4) | AP2 mRNA (aP2) | TG (triglyceride accumulation) (adipocytes) | HSL mRNA (HSL) | % Activity Relative to UTC (tube formation) (HuVECs; Table 59)
1 | 327929 (antisense eG*eA*eA*e[5mC]*eA*eG*eA*eT*eA*eG*eT*e[5mC]*eT*eA*eA*eA*e[5mC]*eA*e[5mC]*eT*eG*eG*eG) [compound 327929] | 71 percentage of untreated control (UTC) | 49 percentage of untreated control (UTC) | 62 percentage of untreated control (UTC) | 65 percentage of untreated control (UTC) | 51.9% | 68 percentage of untreated control (UTC) |  |  |  |  |  | 
2 | 327937 (antisense eG*eA*eT*eT*e[5mC]*eA*e[5mC]*eA*eA*e[5mC]*eA*e[5mC]*e[5mC]*eA*eG*e[5mC]*eT) [compound 327937] |  |  |  |  | 88.9% |  | 92 percentage of untreated control (UTC) | 63 percentage of untreated control (UTC) | 76 percentage of untreated control (UTC) | 81 percentage of untreated control (UTC) | 77 percentage of untreated control (UTC) | 
3 | 327943 (antisense eT*eA*eT*e[5mC]*eT*eG*e[5mC]*eA*e[5mC]*eT*eA*eG*eA*eT*eG*e[5mC]*eA*e[5mC]*e[5mC]*eT*eT*eA) [compound 327943] | 98 percentage of untreated control (UTC) | 87 percentage of untreated control (UTC) | 106 percentage of untreated control (UTC) | 112 percentage of untreated control (UTC) | 81.5% | 109 percentage of untreated control (UTC) |  |  |  |  |  | 
4 | 327953 (antisense eA*eG*eA*eA*eT*eT*eG*e[5mC]*eG*eT*eT*eT*eG*eG*eA*e[5mC]*eA*eA*eT*e[5mC]*eA) [compound 327953] |  |  |  |  |  |  | 90 percentage of untreated control (UTC) | 112 percentage of untreated control (UTC) | 92 percentage of untreated control (UTC) | 94 percentage of untreated control (UTC) | 94 percentage of untreated control (UTC) | 53.3%
5 | 327960 (antisense eG*eT*e[5mC]*eT*eG*eT*e[5mC]*eA*eA*eT*eT*e[5mC]*eA*eT*eA*eG*eG*eT*e[5mC]*eA*eT) [compound 327960] |  |  |  |  |  |  | 76 percentage of untreated control (UTC) | 34 percentage of untreated control (UTC) | 52 percentage of untreated control (UTC) | 47 percentage of untreated control (UTC) | 52 percentage of untreated control (UTC) | 53.3%
6 | 327962 (antisense eG*e[5mC]*eT*eG*eA*eG*eA*eG*eT*eG*eT*eA*eG*eG*eA*eT*eG*eT*eT*eT*eA*e[5mC]*eA) [compound 327962] | 80 percentage of untreated control (UTC) | 58 percentage of untreated control (UTC) | 75 percentage of untreated control (UTC) | 64 percentage of untreated control (UTC) |  | 77 percentage of untreated control (UTC) |  |  |  |  |  | 53.3%
7 | 327966 (antisense eA*eT*e[5mC]*e[5mC]*eA*eA*eT*e[5mC]*eA*eG*eT*eT*e[5mC]*e[5mC]*eT*eG*eA*eT*eG*e[5mC]*eA*eG*eT*eA) [compound 327966] | 77 percentage of untreated control (UTC) | 43 percentage of untreated control (UTC) | 53 percentage of untreated control (UTC) | 52 percentage of untreated control (UTC) |  | 56 percentage of untreated control (UTC) |  |  |  |  |  | 40.0%
